Values of other authors, collected in article PMC10720538, “Population pharmacokinetic modeling and target attainment analyses of rezafungin for the treatment of candidemia and invasive candidiasis” (Antimicrobial Agents and Chemotherapy, 2023).
Like-named read-outs stand apart in the source and are kept apart here. *1 amine or outer side, *2 acyl side, *3 side chain or, on linkers, in order; H or OH if unused. Where a SMILES comes first, the peptide text is derived from it. Bridges are numbered along the chain shown (N, C = ends). [ ]: non-standard residue; d: D form. The star is where a group is joined. Orn(4R-OH,5R-OCH2CH2NMe3+) = C[N+](C)(C)CCO[C@@H](N[*:3])[C@H](O)C[C@H](N[*:1])C(=O)[*:2]; pTerphenylCO(4''-OnC5H11) = CCCCCOc1ccc(-c2ccc(-c3ccc(C(=O)*)cc3)cc2)cc1; hTyr(3S-OH,4S-OH) = N[C@H](C(=O)O)[C@H](O)[C@@H](O)c1ccc(O)cc1; Pro(3S-OH,4S-Me) = C[C@H]1CN[C@H](C(=O)O)[C@H]1O; Hyp = O=C(O)[C@@H]1C[C@@H](O)CN1

Legend:
[1] = cited from earlier work
Description: FIG 4 Probability of pharmacokinetic/pharmacodynamic target attainment for 400 mg rezafungin against Candida species using CLSI methodology. f, free. TEXT PRINTED IN THE PICTURE: no label printed: Candida albicans − fAUC/MIC Targets: CLSI Target: Stasis 20.5; Candida albicans − fAUC/MIC Targets: CLSI Target: 1-Log Drop in CFU 37.2; Candida glabrata − fAUC/MIC Targets: CLSI Target: Stasis 0.5; Candida glabrata − fAUC/MIC Targets: CLSI Target: 1-Log Drop in CFU 2.94; Candida parapsilosis − fAUC/MIC Targets: CLSI Target: Stasis 18.2; Candida auris − fAUC/MIC Targets: CLSI Target: Stasis 12.1; Can ... || It is noted that the target attainment (TA) methodology uses the simulated fAUC0–168h/MIC ratios; therefore, the value of plasma protein binding (PPB) influences this analysis. The free fraction of rezafungin used in the analysis was 2.6%, obtained from measuring PPB in plasma from healthy subjects. […] While there are still questions in the scientific community about how to verify information from the nonclinical model to support PK/PD-b ... || Using each simulated patient’s Bayesian PK parameters and dose amounts, simulations were performed to obtain plasma concentration profiles. […] For the purposes of target attainment analyses, AUC0–168h after the first dose was used (day 1). […]

[2] = mouse plasma; cited from earlier work
Description: Using each simulated patient’s Bayesian PK parameters and dose amounts, simulations were performed to obtain plasma concentration profiles. […] For the purposes of target attainment analyses, AUC0–168h after the first dose was used (day 1). Protein binding of 99.2% in mouse plasma and of 97.4% in human (presumed healthy) plasma has been reported ([34]).

[3] = test system: Candida albicans; settings: CLSI MIC, neutropenic mouse, ref Lepak et al., 2018 (e02154-17), cited from earlier work
Description: (§1) TABLE 4 Nonclinical pharmacokinetic/pharmacodynamic targets, by species^a^,^b^,^c | column: Stasis / fAUC0–168h/MIC median; 1-Log drop / fAUC0–168h/MIC median || FIG 4 Probability of pharmacokinetic/pharmacodynamic target attainment for 400 mg rezafungin against Candida species using CLSI methodology. f, free. TEXT PRINTED IN THE PICTURE: no label printed: Candida albicans − fAUC/MIC Targets: CLSI Target: Stasis 20.5; Candida albicans − fAUC/MIC Targets: CLSI Target: 1-Log Drop in CFU 37.2; Candida glabrata − fAUC/MIC Targets: CLSI Target: Stasis 0.5; Candida glabrata − fAUC/MIC Targets: CLSI Target: 1-Log Drop in CFU 2.94; Candida parapsilosis − fAUC/MIC Targets: CLSI Target: Stasis 18.2; Candida auris − fAUC/MIC Targets: CLSI Target: Stasis 12.1; Can ...

[4] = test system: Candida auris; settings: CLSI MIC, neutropenic mouse, published fAUC0–24 h/MIC target multiplied by 7, ref Lepak et al., 2018 (e01572-18), cited from earlier work
Description: as §1

[5] = test system: Candida dubliniensis; settings: CLSI MIC, neutropenic mouse, ref Lepak et al., 2019 (e01556-19), cited from earlier work
Description: as §1

[6] = test system: Candida glabrata; settings: CLSI MIC, neutropenic mouse, ref Lepak et al., 2018 (e02154-17), cited from earlier work
Description: as §1

[7] = test system: Candida tropicalis; settings: CLSI MIC, neutropenic mouse, ref Lepak et al., 2019 (e01556-19), cited from earlier work
Description: as §1

[8] = test system: Candida parapsilosis; settings: ref Lepak et al., 2018 (e02154-17), cited from earlier work
Description: TABLE 4 Nonclinical pharmacokinetic/pharmacodynamic targets, by species^a^,^b^,^c | column: Method; Stasis / fAUC0–168h/MIC median || FIG 4 Probability of pharmacokinetic/pharmacodynamic target attainment for 400 mg rezafungin against Candida species using CLSI methodology. f, free. […] This has been observed for other echinocandins and appears to be limited to nonclinical testing as C. parapsilosis responds well clinically to echinocandin therapy despite the intrinsically elevated MICs of this species ([29]). It is believed that the C. parapsilosis strains utilized in the model (more than 80% of which were not suitable) are highly fit or virulent and therefore may result in elevated targets ([30]).

## CCCCCOc1ccc(-c2ccc(-c3ccc(C(=O)N[C@H]4C[C@@H](O)[C@@H](OCC[N+](C)(C)C)NC(=O)[C@@H]5[C@@H](O)[C@@H](C)CN5C(=O)[C@H]([C@@H](C)O)NC(=O)[C@H]([C@H](O)[C@@H](O)c5ccc(O)cc5)NC(=O)[C@@H]5C[C@@H](O)CN5C(=O)[C@H]([C@@H](C)O)NC4=O)cc3)cc2)cc1 [rezafungin] ({pTerphenylCO(4''-OnC5H11)}-[Orn(4R-OH,5R-OCH2CH2NMe3+)]T[Hyp][hTyr(3S-OH,4S-OH)]T[Pro(3S-OH,4S-Me)]; lactam 1-C)
[1]; human (presumed healthy) plasma
  Protein binding: 97.4%
[1]; plasma from healthy subjects, used to calculate fAUC0–168h
  free fraction: 2.6%
[2]
  Protein binding: 99.2%
[3]; 1-log10 drop in CFU
  1-Log drop, fAUC0–168h/MIC median: 37.2
[3]; net fungal stasis
  Stasis, fAUC0–168h/MIC median: 20.5
[4]; 1-log10 drop in CFU
  1-Log drop, fAUC0–168h/MIC median: 38.4
[4]; net fungal stasis
  Stasis, fAUC0–168h/MIC median: 12.1
[5]; 1-log10 drop in CFU
  1-Log drop, fAUC0–168h/MIC median: 228.3
[5]; net fungal stasis
  Stasis, fAUC0–168h/MIC median: 35.1
[6]; 1-log10 drop in CFU
  1-Log drop, fAUC0–168h/MIC median: 2.94
[6]; net fungal stasis
  Stasis, fAUC0–168h/MIC median: 0.5
[7]; 1-log10 drop in CFU
  1-Log drop, fAUC0–168h/MIC median: 148.9
[7]; net fungal stasis
  Stasis, fAUC0–168h/MIC median: 86.5
[8]; CLSI MIC, net fungal stasis, neutropenic mouse
  Stasis, fAUC0–168h/MIC median: 18.2
[8]; nonclinical model
  maximum effect: only achieved stasis
